From patent publication US10882837B2, “Amide compounds and use thereof” (ALPHALA CO., LTD., priority 2017, dated 2021)

What was measured:
glucagon receptor (GCGR) = target: T1, glucagon receptor (GCGR) (Homo sapiens, UniProt P47871); test: Glucagon cAMP inhibition assay (Cisbio cAMP Dynamic 2 HTRF); format: cell-based; details: GCGR overexpressed CHO-K1 cells or human primary hepatocytes (not specified); glucagon at EC50
T1 construct: expressed in transfected cells; host or cells: CHO-K1
Outline: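 GCGR-overexpressing CHO-K1 cells or human primary hepatocytes in HBSS with 0.1% BSA and 800 nM IBMX, pre-incubated 30 min with compound (1% DMSO final), then stimulated 30 min at room temperature with glucagon at its EC50. cAMP measured by HTRF after 60 min lysis; IC50 from non-linear regression.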

GCGR = GCGR (Homo sapiens, UniProt P47871); test: I125-glucagon binding assay (competition, GCGR membrane fractions); parameters: expressed in transfected cells; host or cells: CHO-K1; details: competition with I125-glucagon 0.0625 nM; membrane fractions from GCGR overexpressed CHO-K1 cells
Outline: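 Membranes from CHO-K1 cells overexpressing GCGR (7.5 µg/well) were preincubated 5 min with serially diluted compound in 50 mM Tris pH 7.4, 0.5% BSA. I125-glucagon was then added at 0.0625 nM final and incubated 30 min at 25 °C. After filtration, bound radioactivity was counted and IC50 derived by non-linear regression.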

T1 sequence (P47871 26-477, species assumed): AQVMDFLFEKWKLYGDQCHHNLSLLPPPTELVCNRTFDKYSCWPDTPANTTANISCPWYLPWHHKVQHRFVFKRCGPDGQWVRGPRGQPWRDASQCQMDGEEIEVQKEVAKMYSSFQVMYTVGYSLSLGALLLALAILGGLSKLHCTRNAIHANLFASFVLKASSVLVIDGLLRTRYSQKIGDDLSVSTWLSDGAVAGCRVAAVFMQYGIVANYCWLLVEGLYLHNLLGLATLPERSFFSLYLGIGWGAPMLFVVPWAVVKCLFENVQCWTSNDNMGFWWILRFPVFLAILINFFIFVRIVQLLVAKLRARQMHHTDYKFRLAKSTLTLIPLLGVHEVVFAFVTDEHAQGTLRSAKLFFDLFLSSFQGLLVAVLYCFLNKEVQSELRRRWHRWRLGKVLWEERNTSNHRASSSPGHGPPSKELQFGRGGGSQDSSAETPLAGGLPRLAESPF
GCGR, sequence (P47871 26-477, species assumed): as above

Structure (SMILES)	IC50 (glucagon receptor (GCGR)) [µM]	IC50 (GCGR) [µM]
CCCC(Nc1ccc(C(=O)NCCC(=O)O)cc1)c1ccc(-c2nnc(C(F)(F)F)o2)cc1 (centres unmarked) [Compound 1-8, 3-(4-((1-(4-(5-(Trifluoromethyl)-1,3,4-oxadiazol-2-yl)phenyl)butyl)amino)benzamido)propanoic acid]	> 30	0.651
CC(C)C(Nc1ccc(-c2nnc(-c3ccc(F)cc3)o2)cc1)c1ccc(C(=O)NCCC(=O)O)cc1 (centres unmarked) [Compound 3-10, 3-(4-(1-((4-(5-(4-fluorophenyl)-1,3,4-oxadiazol-2-yl)phenyl)amino)-2-methylpropyl)benzamido)propanoic acid]	4.5	0.143
CCCC[C@@H](Nc1ccc(C(=O)NCCC(=O)O)cc1)c1ccc(-c2noc(C(F)(F)F)n2)cc1 [Compound 2-48, (R)-3-(4-((1-(4-(5-(trifluoromethyl)-1,2,4-oxadiazol-3-yl)phenyl)pentyl)amino)benzamido)propanoic acid]	1.57	1.18
CCOC(=O)CCNC(=O)c1ccc(NC(c2ccc(-c3noc(-c4ccccc4)n3)cc2)C2CCCCC2)cc1 (centres unmarked) [Compound 2-16, ethyl 3-(4-((cyclohexyl(4-(5-phenyl-1,2,4-oxadiazol-3-yl)phenyl)methyl)amino)benzamido)propanoate]	0.438	0.178
CCCC[C@H](Nc1ccc(C(=O)NCCC(=O)OCC)cc1)c1ccc(-c2noc(C(F)(F)F)n2)cc1 [Compound 2-45, ethyl (S)-3-(4-((1-(4-(5-(trifluoromethyl)-1,2,4-oxadiazol-3-yl)phenyl)pentyl)amino)benzamido)propanoate]	0.118	> 30
CCOC(=O)CCNC(=O)c1ccc(N[C@H](c2ccc(-c3nnc(-c4ccccc4)o3)cc2)C(C)C)cc1 [Compound 1-39, (S)-ethyl 3-(4-(2-methyl-1-(4-(5-phenyl-1,3,4-oxadiazol-2-yl)phenyl)propylamino)benzamido)propanoate]	0.0403	2.85
CC(C)C(Nc1ccc(-c2noc(-c3ccccc3)n2)cc1)c1ccc(C(=O)NCCC(=O)O)cc1 (centres unmarked) [Compound 3-11, 3-(4-(2-methyl-1-((4-(5-phenyl-1,2,4-oxadiazol-3-yl)phenyl)amino)propyl)benzamido)propanoic acid]	0.717	0.318
CCCC[C@H](Nc1ccc(C(=O)NCCC(=O)O)cc1)c1ccc(-c2nnc(C(F)(F)F)o2)cc1 [Compound 1-53, (S)-3-(4-((1-(4-(5-(trifluoromethyl)-1,3,4-oxadiazol-2-yl)phenyl)pentyl)amino)benzamido)propanoic acid]	1.87	0.351
CCC(C)C(Nc1ccc(C(=O)NCCC(=O)O)cc1)c1ccc(-c2nnc(C(F)(F)F)o2)cc1 (centres unmarked) [Compound 1-32]	3.48	0.885
CCC(C)[C@@H](Nc1ccc(C(=O)NCCC(=O)O)cc1)c1ccc(-c2nnc(C(F)(F)F)o2)cc1 (stereo partly drawn) [Compound 1-37, 3-(4-(((1R)-2-methyl-1-(4-(S-(trifluoromethyl)-1,3,4-oxadiazol-2-yl)phenyl)butyl)amino)benzamido)propanoic acid]	3.26	1.64
CCCCC(Nc1ccc(C(=O)NCCC(=O)O)cc1)c1ccc(-c2noc(C(C)(C)C)n2)cc1 (centres unmarked) [Compound 2-4, 3-(4-((1-(4-(5-(tert-butyl)-1,2,4-oxadiazol-3-yl)phenyl)pentyl)amino)benzamido)propanoic acid]	0.329	0.164
CCOC(=O)CCNC(=O)c1ccc(N[C@H](CC(C)C)c2ccc(-c3nc4ccccc4o3)cc2)cc1 [Compound 4-13, ethyl (R)-3-(4-((1-(4-(benzo[d]oxazol-2-yl)phenyl)-3-methylbutyl)amino)benzamido)propanoate]	0.361	31.6
CCOC(=O)CCNC(=O)c1ccc(C(Oc2ccc(-c3nc4ccccc4o3)cc2)C(C)C)cc1 (centres unmarked) [Compound 7-1, Ethyl 3-(4-(1-(4-(benzo[d]oxazol-2-yl)phenoxy)-2-methylpropyl)benzamido)propanoate]	0.487	> 30
CC(C)CC(Nc1ccc(C(=O)NCCC(=O)O)cc1)c1ccc(-c2noc(-c3ccccc3)n2)cc1 (centres unmarked) [Compound 2-10, 3-(4-((3-methyl-1-(4-(5-phenyl-1,2,4-oxadiazol-3-yl)phenyl)butyl)amino)benzamido)propanoic acid]	0.959	0.124
CCOC(=O)CCNC(=O)c1ccc(N[C@@H](CC(C)C)c2ccc(-c3nnc(-c4ccccc4)o3)cc2)cc1 [Compound 1-59, ethyl (S)-3-(4-((3-methyl-1-(4-(5-phenyl-1,3,4-oxadiazol-2-yl)phenyl)butyl)amino)benzamido)propanoate]	0.026	> 30
CCOC(=O)CCNC(=O)c1ccc(NC(c2ccc(-c3nnc(C(C)(C)C)o3)cc2)C(C)C)cc1 (centres unmarked) [Compound 1-23]	0.18	18.7

Structure (SMILES)	IC50 (glucagon receptor (GCGR)) [µM]	IC50 (GCGR) [µM]
CCCC[C@H](Nc1ccc(C(=O)NCCC(=O)OCC)cc1)c1ccc(-c2nnc(C(F)(F)F)o2)cc1 [Compound 1-51, ethyl (S)-3-(4-((1-(4-(5-(trifluoromethyl)-1,3,4-oxadiazol-2-yl)phenyl)pentyl)amino)benzamido)propanoate]	0.0339	6.17
CC(C)C(Nc1ccc(C(=O)NCCC(=O)O)cc1)c1ccc(-c2nc3ccccc3o2)cc1 (centres unmarked) [Compound 4-3, 3-(4-((1-(4-(benzo[d]oxazol-2-yl)phenyl)-2-methylpropyl)amino)benzamido)propanoic acid]	2.22	0.034
CCCCC(Nc1ccc(-c2nnc(-c3ccccc3)o2)cc1)c1ccc(C(=O)NCCC(=O)O)cc1 (centres unmarked) [Compound 3-1, 3-(4-(1-((4-(5-phenyl-1,3,4-oxadiazol-2-yl)phenyl)amino)pentyl)benzamido)propanoic acid]	1.74	0.025
CCC(C)[C@H](Nc1ccc(C(=O)NCCC(=O)O)cc1)c1ccc(-c2nnc(C(F)(F)F)o2)cc1 (stereo partly drawn) [Compound 1-36, 3-(4-(((1S)-2-methyl-1-(4-(5-(trifluoromethyl)-1,3,4-oxadiazol-2-yl)phenyl)butyl)amino)benzamido)propanoic acid]	2.04	0.359
CCCCC(Nc1ccc(C(=O)NCCC(=O)OC)cc1)c1ccc(-c2nnc(-c3ccccn3)o2)cc1 (centres unmarked) [Compound 1-38, methyl 3-(4-((1-(4-(5-(pyridin-2-yl)-1,3,4-oxadiazol-2-yl)phenyl)pentyl)amino)benzamido)propanoate]	0.08	1.58
CCCC(Nc1ccc(C(=O)NCCC(=O)O)cc1)c1ccc(-c2nnc(-c3ccccc3)o2)cc1 (centres unmarked) [Compound 1-7]	3.33	0.211
CCOC(=O)CCNC(=O)c1ccc(N[C@@H](c2ccc(-c3nnc(-c4ccccc4)o3)cc2)C(C)CC)cc1 (stereo partly drawn) [Compound 1-48, ethyl 3-(4-(((1R)-2-methyl-1-(4-(5-phenyl-1,3,4-oxadiazol-2-yl)phenyl)butyl)amino)benzamido)propanoate]	0.164	> 30
CC(C)CC(Nc1ccc(C(=O)NCCC(=O)O)cc1)c1ccc(-c2nnc(C(F)(F)F)o2)cc1 (centres unmarked) [Compound 1-9, 3-(4-((3-Methyl-1-(4-(5-(trifluoromethyl)-1,3,4-oxadiazol-2-yl)phenyl)butyl)amino)benzamido)propanoic acid]	17.1	0.956
CC(C)[C@H](Nc1ccc(C(=O)NCCC(=O)O)cc1)c1ccc(-c2nnc(C(F)(F)F)o2)cc1 (racemic) [Compound 1-57, (RS)-3-(4-((2-methyl-1-(4-(5-(trifluoromethyl)-1,3,4-oxadiazol-2-yl)phenyl)propyl)amino)benzamido)propanoic acid]	> 30	2.5
CCOC(=O)CCNC(=O)c1ccc(N[C@H](c2ccc(-c3nc(-c4ccccc4)no3)cc2)C(C)CC)cc1 (stereo partly drawn) [Compound 5-5, ethyl 3-(4-(((1S)-2-methyl-1-(4-(3-phenyl-1,2,4-oxadiazol-5-yl)phenyl)butyl)amino)benzamido)propanoate]	0.046	0.876
COC(=O)CCNC(=O)c1ccc(N[C@H](c2ccc(-c3nnc(-c4ccccc4)o3)cc2)C(C)C)cc1 [Compound 1-63, methyl (S)-3-(4-((2-methyl-1-(4-(5-phenyl-1,3,4-oxadiazol-2-yl)phenyl)propyl)amino)benzamido)propanoate]	0.028	1.53
CCOC(=O)CCNC(=O)c1ccc(N[C@H](c2ccc(-c3nc4ccccc4o3)cc2)C(C)C)nc1 [Compound 4-29, ethyl (S)-3-(6-((1-(4-(benzo[d]oxazol-2-methylpropyl)amino)nicotinamido propanoate]	0.0534	0.285
CCCC[C@H](Nc1ccc(C(=O)NCCC(=O)O)cc1)c1ccc(-c2nc3ccccc3o2)cc1 [Compound 4-16, (S)-3-(4-((1-(4-(benzo[d]oxazol-2-yl)phenyl)pentyl)amino)benzamido)propanoic acid]	0.785	0.036
CCOC(=O)CCNC(=O)c1ccc(N[C@@H](c2ccc(-c3nc4ccccc4o3)cc2)C(C)C)cc1 [Compound 4-6, ethyl (R)-3-(4-((1-(4-(benzo[d]oxazol-2-yl)phenyl)-2-methylpropyl)amino)benzamido)propanoate]	0.124	> 3
CCCCC(Nc1ccc(C(=O)NCCC(=O)OCC)cc1)c1ccc(-c2noc(C(C)(C)C)n2)cc1 (centres unmarked) [Compound 2-3]	0.225	> 30
